Data from US7026137B2, “Hepatitis” (Chang Gung University, priority 2003, dated 2006).

What was measured:
[1] = system: HCV in 293EBNA-Sip-L cells; experiment: HCV replication in HCV-infected 293EBNA-Sip-L cell line (intracellular HCV-RNA, nested RT-PCR); assay type: cell-based, hepatitis C virus; conditions: day 2 to day 7 after infection, RT-PCR sensitivity <10^2 copy per 10^5 cells, untreated cells 2.31×10^5 per 10^5 cells
Description: To verify the ability of sodium stibogluconate to inhibit HCV replication, a 293EBNA-Sip-L cell line was used. This cell line, permissive for HCV infection and replication, had been established by expressing a cellular factor, Sip-L, in 293EBNA cells (Yeh et al., J. Virol. 75 (2001) 11017–11024). This cell line was maintained in a Dulbecco's modified Eagle's medium containing 10% fetal bovine serum, 250 μg/ml G418, and 150 μg/ml hygromycin B. The cells were infected with HCV. Briefly, cells in a 60-mm-diameter petri dish were incubated with a medium containing 5 μl of HCV-positive serum (10^7 copies of HCV-RNA/ml) for 12 hr. The cells were then incubated in a fresh medium without the serum.
At the second day after the HCV infection, 293EBNA-Sip-L cells were incubated with media containing 0, 1, 10, and 100 μg/ml of sodium stibogluconate, respectively. At the seventh day, the cells were harvested to determine the intracellular level of HCV-RNA. The cells were trypsinized and washed two times with a fresh medium by centrifugation. The supernatant of the second wash (as a contamination control) and the washed cells were collected in pairs for RNA extraction and nested RT-PCR. A digoxigenin-labeled probe was used for the subsequent Southern blot analysis. The sequences of the primers, the method for generating the probe, and the procedure for RT-PCR were described in Yeh et al., J. Virol. 75 (2001) 11017–11024. An amplified HCV fragment was cloned into pCR2.1-TOPO (Invitrogen, Carlsbad, Calif.) to generate a plasmid, pTOPO-HCV5n, which served as a positive control in Southern blot analysis. As internal controls, the levels of 18s and 28s RNAs were measured.

hepatitis C virus (HCV) = experiment: HCV replication (HCV-RNA level by RT-PCR) in human liver slices from hepatitis C patients; assay type: cell-based; conditions: for suppression of HCV replication in liver slices: 3 days
Description: Liver slices were prepared from liver tissues of the patients. To obtain the livers tissues, biopsy was performed using Bard Biopty-Cut biopsy needles (C. R. Bard, Inc. Covington, Ga.) with a diameter of 1.2 mm (18 gauge). Two equal-sized slices, 1 mm in thickness, were separated from each tissue. The remaining portion (main portion) of each tissue was subjected to pathological examination. The liver slices were incubated in a 24-well culture plate containing 2 ml of minimal essential medium-20% fetal bovine serum and fed with fresh medium daily.
To evaluate whether it suppresses the authentic HCV replication in liver slices, the liver slices from patients S10-1 to S10-6 and S00-1 to S00-6 were incubated with 0, 10, and 100 μg/ml of sodium stibogluconate (Wuhan Shengmao Corp., Hubei, China), respectively, 24 hrs after the slices had been cultured in vitro. The slices from patient S10-5 served as a negative control. Three days later (i.e., 96 hr after the slices were cultured), the level of HCV RNA in each slice was measured.
To detect the HCV-RNA level, one step RT-PCR (not nested) was performed in the manner described in Yeh et al., J. Gen. Virol. 78 (1997) 2761–2770. As a control, β-actin mRNA was measured simultaneously. 20 PCR cycles were performed, in which the amounts of the PCR products had not yet reached to a plateau. The primers used were described in Yeh et al., Oncogene 19 (2000) 5213–5220. […] Methods 65 (1997) 219–226. HCV genotypes were determined using Inno-Lipa HCV II kit (Innogenetics, Zwijndrecht, Belgium).
The responsiveness of patients to Interferon-alpha, a drug currently being used to treat hepatitis C, was evaluated using liver slices. Liver slices prepared from patients INF-1 to 6 were incubated with 5000 U/ml of interferon-alpha2b (Schering-Plough Corp., Kenilworth, N.J. Slices from patient IFN-6, who was infected by hepatitis B virus, were used as negative controls.
The slices form patient […] served as negative controls.

HCV replicon = experiment: HCV subgenomic RNA replicon system (Ava5); assay type: cell-based, hepatitis C virus
[2] = cited from earlier work
hepatitis C = conditions: cited from earlier work
[3] = system: hepatocytes in human liver slices; experiment: Viability of hepatocytes in human liver slices (intracellular AST); assay type: cell-based; conditions: 96 hrs after the culture; Group V liver slices; without drug 57%; no significant difference between samples
Description: To determine whether sodium stibogluconate or interferon-alpha 2b protects hepatocytes in human liver slices, the viability of hepatocytes in human liver slices incubated with the drugs was examined. As HCV replication causes the death of hepatocytes, intracellular aspartate aminotransferase (AST) leaks out. The intracellular level of AST therefore positively correlates with the cell viability.
Liver slices prepared from the patients in Group V were treated with sodium stibogluconate or interferon-alpha 2b in the manner described above. The AST activity in the medium was determined using a standard technique 48, 72, and 96 hrs after the slices had been cultured in vitro. The AST activities in a fresh medium and in the liver slices 96 hrs after incubation were also measured. For this purpose, the slices were homogenized using a mini-homogenizer (Pellet Pestles, Kimble Deltaware, Vineland, N.J). The percentages of AST leaked out to the medium and remained in the liver slices were calculated accordingly.

| Compound | intracellular HCV-RNA ([1]; 1 μg/ml) | intracellular HCV-RNA ([1]; 10 μg/ml) | intracellular HCV-RNA ([1]; 100 μg/ml) | suppression of HCV replication in liver slices (hepatitis C virus (HCV); 10 μg/ml, slices from patient S10-3) | suppression of HCV replication in liver slices (hepatitis C virus (HCV); 10 μg/ml, slices from patients S10-1, S10-2, S10-4 and S10-6) | suppression of HCV replication in liver slices (hepatitis C virus (HCV); 100 μg/ml, slices from patients S00-1, S00-2, S00-3 and S00-5) | suppression of HCV replication in liver slices (hepatitis C virus (HCV); 100 μg/ml, slices from patients S00-4 and S00-6) | suppression of replication of an HCV replicon (HCV replicon) | estimated blood concentration immediately after injection ([2]; daily dose of 20 mg/kg as used in treating kala-azar) | blood concentration needed for treating kala-azar ([2]; in vivo) | suppression of HCV-RNA levels in liver slices (hepatitis C virus (HCV); 5000 U/ml, slices from patient IFN-2) | suppression of HCV-RNA levels in liver slices (hepatitis C virus (HCV); 5000 U/ml, slices from patient IFN-5) | suppression of HCV-RNA levels in liver slices (hepatitis C virus (HCV); 5000 U/ml, slices from patients IFN-1, 3 and 4) | suppression of HCV-RNA levels in liver slices (hepatitis C virus (HCV); interferon heated to 90° C. for 10 min (inactivated) before incubation, slices from patients iIF-1 to 6) | hepatitis C patients responsive to the treatment (hepatitis C) | intracellular AST level [3] |
| --- | --- | --- | --- | --- | --- | --- | --- | --- | --- | --- | --- | --- | --- | --- | --- | --- |
| O.O.O.O.O.O.O.O.O.O=C([O-])[C@@H]1[O][Sb]2([O-])([O][Sb]34([OH])[O][C@H]([C@H](O)CO)[C@H]([O]3)[C@H](C(=O)[O-])[O]4)[O][C@H]([C@H](O)CO)[C@@H]1[O]2.[Na+].[Na+].[Na+] [sodium stibogluconate] | none was detected | none was detected | none was detected | not | partially suppressed | almost completely suppressed | not | capable of suppressing | about 400 μg/ml | 400 µg/mL | – | – | – | – | – | – |
| interferon-alpha 2b | – | – | – | – | – | – | – | – | – | – | no suppression | Partial suppression | suppressed to undetectable levels | No suppression | about 50% | 83% |
